“And” between values parts separate entries of the source, which are not always exact repeats. Equal values may be shown once.
System: 598228-144-R-J1-PDC complex spheroid viability
Assay: Anticancer human tumor 598228-144-R-J1-PDC patient-derived serous endometrial adenocarcinoma cell line growth inhibition [GQUAD]
Conditions: for viability, T/C: stronger effect = lower value; for IC50: curve of compound
Source text: DNA G-quadruplex Stabilizer Agents in Combinations in Complex Spheroids
A high-throughput screen of multi-cell type tumor spheroids was designed to identify active combinations of DNA G-quadruplex stabilizer agents and targeted small molecules. Complex spheroids include a stromal component modeled by human endothelial cells (HUVEC) and fibroblasts modeled by human mesenchymal stem cells (MSCs). The concentration ranges selected for each drug and investigational agent were based upon clinically achievable concentrations if the clinical Cmax of the agent was known.
Compounds. The drugs and investigational agents: pidnarulex (CX-5461; NSC782164), APTO-253 (NSC789042), BRACO-19 (NSC847499), peposertib (NSC802822), ceralasertib (NSC780249), elimusertib (NSC800525), camonsertib (NSC841442), AZD-1390 (NSC803789), olaparib (NSC753686), talazoparib (NSC767125), ART-558 (NSC835418), sotorasib (NSC818433), MRTX-1133 (NSC836407), SN-38 (NSC673596), topotecan (NSC609699), etoposide (NSC141540), doxorubicin (NSC123127), gemcitabine (NSC613327), 5-fluorouracil (NSC19893), paclitaxel (NSC125973), vemurafenib (NSC761431), panobinostat (NSC761190), R-306465 (JNJ-16241199; NSC773264), adavosertib (NSC754352), TP-3654 (NSC805149), carboplatin (NSC241240), KSQ-4279 (NSC840948), and staurosporine (NSC755774) were obtained from the National Cancer Institute (NCI) Developmental Therapeutics Program Chemical Repository (34). The FDA-approved anticancer drug set is available from the NCI Developmental Therapeutics Program. […] The stock solutions were prepared in dimethyl sulfoxide (DMSO, Sigma-Aldrich, St. Louis, MO, cat. D2650) at 800-fold the tested concentration and stored at -70 degrees C prior to their use. All drugs and investigational agents were tested over a range starting from a high concentration at or near the clinical Cmax and decreasing in half-log increments. If the clinical Cmax for an agent had not been determined, the highest concentration tested was 10 microM.
2.3 Cell Culture. All cells were maintained in an incubator at 37 degrees C and 5% CO2 with 95% humidity. The PDC lines were cultured according to standard operating procedures established by the NCI PDMR. All PDCs were thawed and cultured in Matrigel-coated flasks prepared with a working solution of 1X Ham's F-12 nutrient mix, without supplementation (Invitrogen, cat. 11765054), 100 U/mL penicillin-streptomycin (Invitrogen, cat. 15140122), and 2.5% Matrigel (Corning Inc., cat. 354248) for the first three passages. The 857933-349-R-J2-PDC line was cultured in 6C/Colon 1B media, which includes advanced DMEM/F-12 (Thermo Fisher Scientific, cat. 12634028), 10 mM HEPES (Thermo Fisher Scientific, cat. 15630080), 1X GlutaMAX supplement (Thermo Fisher Scientific, cat. 35050061), 0.1 mg/mL primocin (InvivoGen, cat. ant-pm-2), 10% defined fetal bovine serum, heat inactivated (HyClone Laboratories Inc., cat. SH30070.03HI), 50% L-WRN conditioned media (ATCC, cat. CRL-3276), 1.25 mM N-Acetyl-L-cysteine (Sigma-Aldrich, cat. A9165), 10 mM nicotinamide (Sigma-Aldrich, cat. N0636), 1X B-27 supplement (Thermo Fisher Scientific, cat. 17504044), 1X N-2 supplement (Thermo Fisher Scientific, cat. 17502048), 10 microM Y-27632 dihydrochloride (Tocris Bioscience, cat. 1254), and 50 ng/mL human EGF recombinant protein (Thermo Fisher Scientific, cat. PHG0311). The 485176-168-R4-J1-PDC line was cultured in Panc media, which includes all 6C/Colon 1B media components plus 100 ng/mL human FGF-10 (Thermo Fisher Scientific, cat. 100-26), 500 nM SB-431542 (Selleckchem, cat. S1067), and gastrin (Tocris, cat. 3006).
[…]
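Further: spheroids exposed to the agents for one week before reading.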
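Wherever viability, T/C is given: percent of vehicle DMSO control viability so 100% = untreated growth.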

IC50 | SMILES | viability, T/C (compound 0.0316 µM) | viability, T/C (compound 0.1 µM) | viability, T/C (compound 0.316 µM) | viability, T/C (compound 1 µM) | viability, T/C (compound 3.16 µM) | viability, T/C (compound 10 µM) | viability, T/C (compound 0.000999 µM) | viability, T/C (compound 0.00316 µM) | viability, T/C (compound 0.00999 µM) | viability, T/C (compound 0.0999 µM)
101 nM and 134 nM and 154 nM | CC1COCCN1c1cc(C2(O)CC3CCC(C2)O3)c2cnn(-c3ccn[nH]3)c2n1 (stereo not given) | 68.6% and 72.1% and 69.9% | 40% and 42.8% and 48.9% | 41.1% and 40% and 42.5% | 33% and 40.1% and 34.1% | 22.5% and 33.5% and 32.9% | 11.1% and 15% and 15.1% |  |  |  | 
17.3 nM and 8.3 nM and 23.2 nM | CCc1c2c(nc3ccc(O)cc13)-c1cc3c(c(=O)n1C2)COC(=O)[C@]3(O)CC | 43.9% and 44.5% and 44.3% |  | 19.5% and 18.4% and 18.3% |  |  |  | 72.2% and 58.7% and 67.3% | 58.9% and 53.5% and 66.5% | 59.5% and 47.4% and 56.2% | 28.2% and 31% and 38.2%
> 10000 nM | O=C(c1cc(Cc2n[nH]c(=O)c3ccccc23)ccc1F)N1CCN(C(=O)C2CC2)CC1 | 99.5% and 83.8% and 109% | 96.3% and 85.6% and 96.4% | 88.2% and 96.8% (2×) | 118% and 79.3% and 98.2% | 81% and 79.2% and 90.8% | 74.8% and 64.3% and 66.1% |  |  |  | 
63.1 nM and 56.5 nM and 67.3 nM | Cc1[nH]c2ccccc2c1CCNCc1ccc(/C=C/C(=O)NO)cc1 | 83.5% and 70.5% and 71.7% |  | 0.72% and 0.83% and 0.61% |  |  |  | 109% and 102% and 101% | 97.9% and 99.4% and 93.7% | 108% and 97.5% and 99% | 27.5% and 29.3% and 38.2%
> 10000 nM | O=c1[nH]cc(F)c(=O)[nH]1 | 133% and 103% and 95.3% | 97.8% and 107% and 117% | 85.5% and 104% and 88.7% | 105% and 96.9% and 91.4% | 97% and 95.8% and 105% | 86.7% and 77.5% and 79.2% |  |  |  | 
